Laboratory results from article PMC9608620, “Synthesis and Identification of New N,N-Disubstituted Thiourea, and Thiazolidinone Scaffolds Based on Quinolone Moiety as Urease Inhibitor” (Molecules, 2022).
In brackets after ≈: the same amount, converted by molar mass. Like-named read-outs stand apart in the source and are kept apart here.

Assays:
[1] = molecular target: T1, urease (Jack bean urease) (Canavalia ensiformis, UniProt P07374); experiment: biochemical; format: biochemical
Experimental: In vitro screening and inhibitory studies on urease (Jack bean urease) were determined using the colored Berthelot phenols method, which measures the liberation of ammonia from the reaction. Briefly, the assay mixture containing 1 unit of the enzyme was added to 650 µL of buffer solution (50 mmol phosphate buffer Ph 6.7, 400 mmol sodium salicylate, 10 mmol sodium nitroprusside, and 2 mmol EDTA/L) and mixed with 10 µL of different concentration 0.1–100 Mm of the tested compounds in DMF as a solvent. […] After 15 min incubation at room temperature, 10 µL of 50 mg/L urea solution was added. The mixture was incubated for 0.5 h in a water bath at 37 °C to allow the hydrolysis process.
After complete urea hydrolysis and ammonia liberation, the reaction was stopped by adding 200 µL of the hypochlorite reagent (150 mmol/L sodium hydroxide, 140 mm/L sodium hypochlorite). The liberated ammonia was allowed to complex with the hypochlorite and salicylate for 25 min at 30 °C. The absorbance was measured at 578 nm using a UV/VIS Spectrophotometer (Optizen POP, 5U4608, Daejeon, Korea), and experiments were performed in triplicate in a final volume of 1 mL. […] The percentage inhibition was calculated as the difference of absorbance values with and without the test compounds. The concentration that provokes an inhibition halfway between the minimum and maximum response of each compound (relative IC50) was determined by monitoring the inhibition effect of various concentrations of compounds in the assay.

[2] = tested on: Proteus mirabilis (P. mirabilis) strain; experiment: Antibacterial screening, cup-plate diffusion method; format: cell-based; conditions: urease-positive clinical isolate from urine, number in brackets, read-out: MIC P. mirabilis (given in brackets)
Experimental: The Proteus mirabilis (P. mirabilis) strain was isolated from the urine of patients suffering from urinary tract infections. […] The test was performed using the cup-plate diffusion method

[3] = molecular target: T1, urease (Jack bean urease); conditions: read-out: IC50 (µM) Urease; lead compound of the design rationale; cited from earlier work
[4] = Jack bean urease, triplicate, relative IC50, read-out: IC50 (µM) Urease

T1 sequence (P07374 whole entry, looked up): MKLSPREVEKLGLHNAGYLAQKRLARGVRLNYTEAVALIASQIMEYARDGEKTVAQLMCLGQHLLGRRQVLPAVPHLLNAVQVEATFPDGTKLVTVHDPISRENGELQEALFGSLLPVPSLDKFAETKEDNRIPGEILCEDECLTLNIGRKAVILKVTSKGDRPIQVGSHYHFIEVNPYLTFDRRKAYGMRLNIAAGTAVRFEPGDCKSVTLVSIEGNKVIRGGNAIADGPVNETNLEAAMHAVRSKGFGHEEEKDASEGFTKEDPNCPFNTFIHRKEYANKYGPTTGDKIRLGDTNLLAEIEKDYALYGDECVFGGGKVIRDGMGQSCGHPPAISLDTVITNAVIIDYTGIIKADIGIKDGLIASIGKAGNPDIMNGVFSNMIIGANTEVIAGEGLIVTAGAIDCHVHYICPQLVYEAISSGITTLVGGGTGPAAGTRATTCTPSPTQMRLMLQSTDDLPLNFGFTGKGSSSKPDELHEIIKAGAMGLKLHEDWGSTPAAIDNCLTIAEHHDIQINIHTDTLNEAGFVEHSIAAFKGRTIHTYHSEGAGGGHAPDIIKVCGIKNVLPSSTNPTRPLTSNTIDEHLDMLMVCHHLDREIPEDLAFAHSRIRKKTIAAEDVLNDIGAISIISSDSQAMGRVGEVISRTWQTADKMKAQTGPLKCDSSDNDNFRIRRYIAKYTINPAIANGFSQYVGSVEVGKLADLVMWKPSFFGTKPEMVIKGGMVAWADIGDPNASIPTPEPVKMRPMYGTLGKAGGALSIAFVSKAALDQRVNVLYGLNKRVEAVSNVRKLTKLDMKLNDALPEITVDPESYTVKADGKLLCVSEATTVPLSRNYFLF

CC(=O)NO [Acetohydroxamic acid, reference compound]
IC50 [1, 4]: 21 ± 0.94 µM

C=CCNC(=S)NNC(=O)COc1cc(=O)n(C)c2ccccc12 [Compound 5a, N-Allyl-2-(2-((1-methyl-2-oxo-1,2-dihydroquinolin-4-yl)oxy)acetyl)hydrazinecarbo-thioamide]
IC50 [1]: 2.48 ± 0.18 µM | MIC [2]: 100 µg/mL (≈ 289 µM) | melting point: 177 to 179 °C

Cn1c(=O)cc(OCC(=O)NNC(=S)NCc2ccccc2)c2ccccc21 [Compound 5b, N-Benzyl-2-(2-((1-methyl-2-oxo-1,2-dihydroquinolin-4-yl)oxy)acetyl)hydrazinecarbothioamide]
IC50 [1]: 2.58 ± 0.1 µM | MIC [2]: 100 µg/mL (≈ 252 µM) | melting point: 190 to 192 °C

Cn1c(=O)cc(OCC(=O)NNC(=S)Nc2ccccc2)c2ccccc21 [Compound 5c, 2-(2-((1-Methyl-2-oxo-1,2-dihydroquinolin-4-yl)oxy)acetyl)-N-phenylhydrazinecarbothioamide]
IC50 [1]: 1.83 ± 0.79 µM | fold more potent than thiourea and acetohydroxamic acid (urease inhibition) ([1]; relative to the reference inhibitors): approximately 12 fold | MIC [2]: 100 µg/mL (≈ 261 µM) | melting point: 161 to 163 °C

C=CCNC(=S)NNC(=O)COc1cc(=O)[nH]c2ccc(C)cc12 [Compound 5d, N-Allyl-2-(2-((6-methyl-2-oxo-1,2-dihydroquinolin-4-yl)oxy)acetyl)hydrazine-1-carbothioamide]
IC50 [1]: 5.29 ± 0.36 µM | MIC [2]: 100 µg/mL (≈ 289 µM) | melting point: 174 to 176 °C

Cc1ccc2[nH]c(=O)cc(OCC(=O)NNC(=S)NCc3ccccc3)c2c1 [Compound 5e, N-Benzyl-2-(2-((6-methyl-2-oxo-1,2-dihydroquinolin-4-yl)oxy)acetyl)hydrazinecarbothioamide]
IC50 [1]: 5.6 ± 0.84 µM | MIC [2]: 100 µg/mL (≈ 252 µM) | melting point: 183 to 185 °C

C=CCNC(=S)NNC(=O)COc1cc(=O)[nH]c2ccccc12 [Compound 5f, N-Allyl-2-(2-((2-oxo-1,2-dihydroquinolin-4-yl)oxy)acetyl)hydrazinecarbothioamide]
IC50 [1]: 9.45 ± 0.08 µM | MIC [2]: 100 µg/mL (≈ 301 µM) | melting point: 169 to 171 °C

O=C(COc1cc(=O)[nH]c2ccccc12)NNC(=S)NCc1ccccc1 [Compound 5g, N-Benzyl-2-(2-((2-oxo-1,2-dihydroquinolin-4-yl)oxy)acetyl)hydrazinecarbothioamide]
IC50 [1]: 11.2 ± 0.27 µM | MIC [2]: 100 µg/mL (≈ 261 µM) | melting point: 199 to 201 °C

C=CCN1C(=O)/C(=C\C(=O)OC)SC1=NNC(=O)COc1cc(=O)n(C)c2ccccc12 [Compound 7a, (2E)-Methyl 2-(3-allyl-2-(2-(2-((1-methyl-2-oxo-1,2-dihydroquinolin-4-yl)oxy)acetyl)-hydrazono)-4-oxothiazolidin-5-ylidene)acetate]
IC50 [1]: 36.28 ± 0.1 µM | MIC [2]: 200 µg/mL (≈ 438 µM) | melting point: 233 to 235 °C

CCOC(=O)/C=C1/S/C(=N\NC(=O)COc2cc(=O)n(C)c3ccccc23)N(Cc2ccccc2)C1=O [Compound 7b]
IC50 [1]: 24 ± 0.88 µM | MIC [2]: 200 µg/mL (≈ 384 µM) | melting point: 243 to 245 °C

COC(=O)/C=C1/SC(=NNC(=O)COc2cc(=O)n(C)c3ccccc23)N(c2ccccc2)C1=O [Compound 7c, (2E)-Methyl 2-(2-(2-(2-((1-methyl-2-oxo-1,2-dihydroquinolin-4-yl)oxy)acetyl)-hydrazono)-4-oxo-3-phenylthiazolidin-5-ylidene)acetate]
IC50 [1]: 18.8 ± 1.72 µM | MIC [2]: 200 µg/mL (≈ 406 µM) | melting point: 229 to 231 °C

CCOC(=O)/C=C1/SC(=NNC(=O)COc2cc(=O)n(C)c3ccccc23)N(c2ccccc2)C1=O [Compound 7d, (2E)-Ethyl 2-(2-(2-(2-((1-methyl-2-oxo-1,2-dihydroquinolin-4-yl)oxy)acetyl)-hydrazono)-4-oxo-3-phenylthiazolidin-5-ylidene)acetate]
IC50 [1]: 26.8 ± 1.11 µM | MIC [2]: 200 µg/mL (≈ 395 µM) | melting point: 223 to 225 °C

C=CCN1C(=O)/C(=C\C(=O)OCC)S/C1=N\NC(=O)COc1cc(=O)[nH]c2ccc(C)cc12 [Compound 7e, (E)-Ethyl 2-((Z)-3-allyl-2-(2-(2-((6-methyl-2-oxo-1,2-dihydroquinolin-4-yl)oxy)acetyl)-hydrazono)-4-oxothiazolidin-5-ylidene)acetate]
IC50 [1]: 29.8 ± 1.31 µM | MIC [2]: 200 µg/mL (≈ 425 µM) | melting point: 239 to 241 °C

C=CCN1C(=O)/C(=C\C(=O)OC)S/C1=N\NC(=O)COc1cc(=O)[nH]c2ccc(C)cc12 [Compound 7f, (E)-Methyl 2-((Z)-3-allyl-2-(2-(2-((6-methyl-2-oxo-1,2-dihydroquinolin-4-yl)oxy)-acetyl)hydrazono)-4-oxothiazolidin-5-ylidene)acetate]
IC50 [1]: 31.58 ± 0.15 µM | MIC [2]: 200 µg/mL (≈ 438 µM) | melting point: 232 to 233 °C

COC(=O)/C=C1/SC(=NNC(=O)COc2cc(=O)[nH]c3ccc(C)cc23)N(Cc2ccccc2)C1=O [Compound 7g, (2E)-Methyl 2-(3-benzyl-2-(2-(2-((6-methyl-2-oxo-1,2-dihydroquinolin-4-yl)oxy)acetyl)-hydrazono)-4-oxothiazolidin-5-ylidene)acetate]
IC50 [1]: 45.43 ± 0.19 µM | MIC [2]: 200 µg/mL (≈ 395 µM) | melting point: 241 to 243 °C

CCOC(=O)/C=C1/S/C(=N\NC(=O)COc2cc(=O)[nH]c3ccc(C)cc23)N(Cc2ccccc2)C1=O [Compound 7h, (E)-Ethyl 2-((Z)-3-benzyl-2-(2-(2-((6-methyl-2-oxo-1,2-dihydroquinolin-4-yl)oxy)acetyl)-hydrazono)-4-oxothiazolidin-5-ylidene)acetate]
IC50 [1]: 31.3 ± 0.36 µM | MIC [2]: 200 µg/mL (≈ 384 µM) | melting point: 233 to 235 °C

C=CCN1C(=O)/C(=C\C(=O)OCC)S/C1=N\NC(=O)COc1cc(=O)[nH]c2ccccc12 [Compound 7i, (2E)-Ethyl 2-(3-allyl-4-oxo-2-(2-(2-((2-oxo-1,2-dihydroquinolin-4-yl)oxy)acetyl)hydra-zono)thiazolidin-5-ylidene)acetate]
IC50 [1]: 42.8 ± 1.51 µM | MIC [2]: 200 µg/mL (≈ 438 µM)

C=CCN1C(=O)/C(=C\C(=O)OC)SC1=NNC(=O)COc1cc(=O)[nH]c2ccccc12 [Compound 7j, (2E)-Methyl 2-(3-allyl-4-oxo-2-(2-(2-((2-oxo-1,2-dihydroquinolin-4-yl)oxy)acetyl)-hydrazono)thiazolidin-5-ylidene)acetate]
IC50 [1]: 51.4 ± 0.91 µM | MIC [2]: 200 µg/mL (≈ 452 µM) | melting point: 244 to 246 °C

COC(=O)/C=C1/SC(=NNC(=O)COc2cc(=O)[nH]c3ccccc23)N(Cc2ccccc2)C1=O [Compound 7k, (2E)-Methyl 2-(3-benzyl-4-oxo-2-(2-(2-((2-oxo-1,2-dihydroquinolin-4-yl)oxy)acetyl)-hydrazono)thiazolidin-5-ylidene)acetate]
IC50 [1]: 49.45 ± 0.09 µM | MIC [2]: 200 µg/mL (≈ 406 µM) | melting point: 251 to 253 °C

CCOC(=O)/C=C1/S/C(=N\NC(=O)COc2cc(=O)[nH]c3ccccc23)N(Cc2ccccc2)C1=O [Compound 7l, (E)-Ethyl 2-((Z)-3-benzyl-4-oxo-2-(2-(2-((2-oxo-1,2-dihydroquinolin-4-yl)oxy)acetyl)-hydrazono)thiazolidin-5-ylidene)acetate]
IC50 [1]: 37.21 ± 0.28 µM | MIC [2]: 200 µg/mL (≈ 395 µM) | melting point: 249 to 251 °C

NC(N)=S [Thiourea]
IC50 [1, 4]: 22.8 ± 1.31 µM

CCNC(=S)NNC(=O)Cn1c(Cc2ccc(F)cc2)nc2ccccc2c1=O [lead I, N-ethyl-2-(2-(2-(4-fluorobenzyl)-4-oxoquinazolin-3(4H)-yl)acetyl)hydrazinecarbothioamide]
IC50 [3]: 6.02 ± 0.27 µM
